According to paper PMC8645336, “Benchmarking a highly selective USP30 inhibitor for enhancement of mitophagy and pexophagy” (Life Science Alliance, 2021):

Experiments:
Assay in all cases: biochemical
Set-up in all cases: Ubiquigent DUB profiler selectivity panel, remaining enzyme activity as % of control
Conditions in all cases: read-out: % of control remaining
[1] = biological target: T1, OTUD5 (p177S) (Homo sapiens, UniProt Q96G74)
T1 construct: phosphorylated S177
T1 sequence (Q96G74 1-571): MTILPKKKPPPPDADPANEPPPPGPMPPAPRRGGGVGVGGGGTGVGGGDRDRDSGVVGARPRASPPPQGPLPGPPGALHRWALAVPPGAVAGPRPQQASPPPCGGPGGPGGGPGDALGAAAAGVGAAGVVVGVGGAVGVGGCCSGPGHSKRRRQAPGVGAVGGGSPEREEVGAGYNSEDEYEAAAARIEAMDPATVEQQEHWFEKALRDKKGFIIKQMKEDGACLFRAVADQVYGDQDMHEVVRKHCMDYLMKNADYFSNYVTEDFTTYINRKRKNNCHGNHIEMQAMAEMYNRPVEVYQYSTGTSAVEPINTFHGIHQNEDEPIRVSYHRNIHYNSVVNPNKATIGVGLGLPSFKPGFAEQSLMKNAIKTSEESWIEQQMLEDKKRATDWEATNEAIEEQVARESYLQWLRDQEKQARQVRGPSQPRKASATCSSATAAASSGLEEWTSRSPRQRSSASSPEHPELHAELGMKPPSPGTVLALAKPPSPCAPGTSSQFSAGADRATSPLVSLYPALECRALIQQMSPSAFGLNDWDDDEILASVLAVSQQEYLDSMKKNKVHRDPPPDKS
Description: (§1) Previous work has reported IC50 values for a series of benzosulphonamide inhibitors, of which all those <1 μM were screened for selectivity, in comparison to three other USP family members ([20], [21]). We have selected one of these compounds (CMPD-39, Fig 1A) for a more rigorous test of selectivity provided by the Ubiquigent DUB profiler screening platform comprising >40 DUBs. […] To test engagement of the inhibitor with USP30 applied to intact cells, we assayed competition with Ub-PA (Ub-propargylamide). Ub-PA covalently binds to the USP30 active site leading to a characteristic upshift on a SDS–PAGE gel ([22]). If a drug blocks access to the catalytic site, then the probe modification is blocked and the apparent molecular weight of USP30 shifts down accordingly. […] A robust proxy read-out for target engagement is the enhancement of TOMM20 ubiquitylation after mitochondrial depolarization ([6], [16]). This second assay indicates a maximal effect with 200 nM CMPD-39 applied to RPE1-YFP-PRKN cells (Fig 1D).  Figure 1. CMPD-39 is a selective USP30 inhibitor. (A) Chemical structure of CMPD-39. (B) DUB specificity screen (DUB profiler, Ubiquigent) with 1-100 μM CMPD-39. […] Samples were incubated with CMPD-39 for 2 h at the indicated concentrations, then incubated with HA-Ub-PA probe for 10 min at 37°C and immunoblotted as shown. Red arrow indicates unbound USP30; blue arrow represents probe bound USP30. (D) Inhibition of USP30 enhances the ubiquitylation of TOMM20 in YFP-PRKN over-expressing hTERT-RPE1 cells in a concentration dependent manner in response to mitophagy induction. Cells were treated for 1 h with DMSO or antimycin A and oligomycin A (AO; 1 μM each) in the absence or presence of CMPD-39 at the indicated concentrations, lysed, and analyzed by Western blotting. Black arrow indicates unmodified TOMM20, ubiquitylated species are indicated by red (mono-ubiquitylated) or blue arrow heads. […] Source data are available for this figure.

[2] = biological target: T2, UCHL3 (Homo sapiens, UniProt P15374)
T2 sequence (P15374 1-230): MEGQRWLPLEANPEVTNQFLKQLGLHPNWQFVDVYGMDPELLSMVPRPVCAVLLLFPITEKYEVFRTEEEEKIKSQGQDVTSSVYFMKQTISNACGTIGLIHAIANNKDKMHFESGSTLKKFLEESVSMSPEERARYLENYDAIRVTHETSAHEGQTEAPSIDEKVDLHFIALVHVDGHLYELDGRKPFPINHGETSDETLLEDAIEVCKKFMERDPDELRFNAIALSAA
Description: as §1

[3] = biological target: T3, USP25 (Homo sapiens, UniProt Q9UHP3)
T3 sequence (Q9UHP3 1-1055): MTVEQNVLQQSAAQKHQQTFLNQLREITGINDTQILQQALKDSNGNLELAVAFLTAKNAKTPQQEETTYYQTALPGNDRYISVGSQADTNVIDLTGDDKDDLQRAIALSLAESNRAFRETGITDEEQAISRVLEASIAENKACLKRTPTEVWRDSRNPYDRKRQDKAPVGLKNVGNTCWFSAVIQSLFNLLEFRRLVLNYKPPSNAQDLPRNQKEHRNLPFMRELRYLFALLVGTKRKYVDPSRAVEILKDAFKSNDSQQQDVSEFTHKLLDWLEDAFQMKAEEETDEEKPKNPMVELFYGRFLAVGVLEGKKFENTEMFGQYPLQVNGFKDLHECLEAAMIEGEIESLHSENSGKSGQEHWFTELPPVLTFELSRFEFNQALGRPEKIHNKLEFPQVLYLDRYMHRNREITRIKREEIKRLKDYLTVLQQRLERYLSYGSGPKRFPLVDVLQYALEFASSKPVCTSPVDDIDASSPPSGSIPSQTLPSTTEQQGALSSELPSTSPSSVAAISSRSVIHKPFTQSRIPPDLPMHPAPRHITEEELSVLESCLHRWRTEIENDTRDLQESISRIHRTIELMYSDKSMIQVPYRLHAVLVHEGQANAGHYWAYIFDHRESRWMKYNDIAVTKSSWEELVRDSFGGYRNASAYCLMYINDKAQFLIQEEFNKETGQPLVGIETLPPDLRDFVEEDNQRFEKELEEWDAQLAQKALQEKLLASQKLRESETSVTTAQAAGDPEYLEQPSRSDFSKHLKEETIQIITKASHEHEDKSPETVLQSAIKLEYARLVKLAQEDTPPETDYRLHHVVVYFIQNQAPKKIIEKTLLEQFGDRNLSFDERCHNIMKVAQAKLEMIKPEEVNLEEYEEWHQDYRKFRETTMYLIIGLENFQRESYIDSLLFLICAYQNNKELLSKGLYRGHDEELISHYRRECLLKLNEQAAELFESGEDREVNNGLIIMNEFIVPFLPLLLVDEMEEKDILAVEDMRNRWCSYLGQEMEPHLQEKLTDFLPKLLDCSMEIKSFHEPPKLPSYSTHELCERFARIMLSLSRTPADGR
Description: as §1

remaining activity at 1 µM [1]: 108%
remaining activity at 10 µM [1]: 106%
remaining activity at 100 µM [1]: 89.9%
remaining activity at 1 µM [2]: 107%
remaining activity at 10 µM [2]: 98.8%
remaining activity at 100 µM [2]: 97.6%
remaining activity at 1 µM [3]: 103%
remaining activity at 10 µM [3]: 94.5%
remaining activity at 100 µM [3]: 103%
Structure (SMILES): CC(C)(C)NS(=O)(=O)c1ccc(NC(=O)[C@H](Cc2ccccc2)NC(=O)c2ccc(F)cc2)cc1 [compound 39, CMPD-39]
